{"source": "patent US20100204156A1", "about": "“USE OF THYMOPENTIN AS A THERAPEUTIC AGENT” (priority 2007, published 2010)", "test_system": "drug-resistant Mycobacterium tuberculosis", "details": "5 micrograms per ml", "note": "Residues, ends and D or L forms follow the SMILES beside them.", "data": [{"smiles": "CC(C)[C@H](NC(=O)[C@H](CC(=O)O)NC(=O)[C@H](CCCCN)NC(=O)[C@@H](N)CCCN=C(N)N)C(=O)N[C@@H](Cc1ccc(O)cc1)C(=O)O", "note": "[Thymopentin, Arg-Lys-Asp-Val-Tyr-OH] (H-RKDVY-OH)", "values": [{"measurement": "% inhibition", "value": 0.0, "unit": "%"}]}]}
